US20210079476A1, “BIOMARKERS OF RENAL OSTEODYSTROPHY TYPE” (The Trustees of Columbia University in the City of New York, priority 2018, published 2021)
“Also recorded” adds a separate entry of the source.

Legend:
CKD rats (Cy/+) [1] = assay: Cy/+ rat model of CKD: bone turnover by histomorphometry after treatment; assay type: in vivo
Text: (§1) The Cy/+ rat model of CKD was used to assess bone expression of miRNAs. Cy/+ rats are characterized by an autosomal dominant progressive cystic kidney disease that is […] with human ADPKD(63). […] The Cy/+IU colony of rats has been bred for nearly 20 years. The model recapitulates CKD-MBD with progressive kidney disease, hyperphosphatemia, secondary hyperparathyroidism, elevated FGF-23, resulting in ROD and vascular calcification. Importantly, the slowly progressive nature of the model allows for examination of interventions that differentially affect bone remodeling. […] In brief, CKD animals (n=8-10 each group) began treatment at 25 weeks for a total of 10 weeks and received 1) no treatment (control CKD=high PTH/high turnover, 2) 3% calcium in the drinking water (CKD/Ca group=low PTH/low turnover), or 3) a single injection of zoledronic acid (CKD/Zol group=high PTH/low turnover). At 35 weeks of age, animals were euthanized and bone tissue were collected. Bone histomorphometry as previously reported (67). RNA was isolated from tibia and bone miRNA expression determined by real time PCR using TaqMan miRNA assay as above.
The Cy/+ rat model of CKD was used to assess bone expression of miRNAs. […] The Cy/+IU colony of rats has been bred at Indiana University for nearly 20 years. […]

[2] = test system: miRNA 30b, 30c, 125b and 155; assay type: in vivo, rat; conditions: CKD rats
Text: as §1
The Cy/+ rat model of CKD was used to assess bone expression of miRNAs. […] The Cy/+IU colony of rats has been bred at Indiana University for nearly 20 years. The model recapitulates CKD-MBD with progressive kidney disease, hyperphosphatemia, secondary hyperparathyroidism, elevated FGF-23, resulting in ROD and vascular calcification. Importantly, the slowly progressive nature of the model allows for examination of interventions that differentially affect bone remodeling. Specifically, we have induced low turnover bone remodeling by two methods: with calcium in the drinking water (calcium binders) and zoledronic acid.^41, 42 In brief, CKD animals (n=8 to 10 each group) began treatment at 25 weeks for a total of 10 weeks and received: (i) no treatment (control CKD=high PTH/high turnover; (ii) 3% calcium in the drinking water (CKD/Ca group=low PTH/low turnover); or (iii) a single injection of 20 μg/kg of zoledronic acid (CKD/Zol group=high PTH/low turnover). At 35 weeks of age, animals were euthanized and bone tissue was collected. Bone histomorphometry was performed as previously reported.^43 RNA was isolated from tibia, and bone miRNA expression was determined by real-time PCR using TaqMan miRNA assay as described above. All procedures were reviewed and approved by the Indiana University School of Medicine Institutional Animal Care and Use Committee.

CKD rats (Cy/+) [3] = conditions: Cy/+ rat model; cited from earlier work
Cy/+ (CKD) rat = conditions: Cy/+ CKD rat model; cited from earlier work

| Compound | PTH status of the treated group (CKD rats (Cy/+) [1]; same treatment groups, untreated CKD = high PTH) | type of bone turnover induced by the intervention (histomorphometry) (CKD rats (Cy/+) [1]; treatment from 25 weeks of age for 10 weeks, 3% calcium in drinking water or single injection of zoledronic acid, untreated CKD = high turnover) | levels of miRNAs, low turnover induced by dietary calcium compared with zoledronic acid ([2]; bone tissue) | bone-tissue expression of miRNA-30b vs rats with high turnover ([2]; tibia, 35 weeks of age) | bone-tissue expression of miRNA-30c vs rats with high turnover ([2]; tibia, 35 weeks of age) | bone-tissue expression of miRNA-125b vs rats with high turnover ([2]; tibia, 35 weeks of age) | bone-tissue expression of miRNA-155 vs rats with high turnover ([2]; tibia, 35 weeks of age) | induction of low turnover bone remodeling (CKD rats (Cy/+) [3]) | suppressing bone turnover (Cy/+ (CKD) rat) |
| --- | --- | --- | --- | --- | --- | --- | --- | --- | --- |
| [Ca+2] [calcium] | low PTH | low turnover | did not differ | low expression; also recorded: lower | low expression; also recorded: lower | low expression; also recorded: lower | low expression; also recorded: lower | low turnover bone remodeling has been induced |  |
| C=C1/C(=C\C=C2/CCC[C@]3(C)[C@@H]([C@H](C)CCCC(C)(C)O)CC[C@@H]23)C[C@@H](O)C[C@@H]1O [Calcitriol] |  |  |  |  |  |  |  |  | not effective |
